Consider 8 compounds from PubChem BioAssay (NCI).

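Each compound was tested at five concentrations against cells in 96-well plates for 48 hours. At the GI50, growth is halved. TGI denotes the concentration required for complete inhibition of growth.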

Among the test systems are SK-OV-3 ovarian; SF-295 CNS; SNB-19 CNS; HOP-92 NSCLC; U251 CNS; NCI-H226 lung; UACC-257 melanoma; HCT-15 colon; 786-0 renal; SF-539 CNS.
What all share (assay): DTP human tumour cell line panel, 48 h

Regarding `CCCCC(=O)OCC(=O)[C@]1(O)Cc2c(O)c3c(c(O)c2[C@@H](OC2CC(NC(=O)C(F)(F)F)C(O)C(C)O2)C1)C(=O)c1c(OC)cccc1C3=O` (some centres not stated), the TGI with SK-OV-3 ovarian amounted to 1.73 µM; with SF-295 CNS, 2.19 µM; in the experiment on SNB-19 CNS, 3.02 µM; in the experiment with HOP-92 NSCLC, 3.88 µM; in the experiment with U251 CNS, 2.81 µM; in the experiment with NCI-H226 lung, 0.192 µM. Besides, the TGI with UACC-257 melanoma is 8.08 µM; with HCT-15 colon, 6.9 µM; with 786-0 renal it was 1.35 µM; with SF-539 CNS, 2.98 µM.

On to `COC1=CC(c2ccc[nH]2)=N/C1=C\c1[nH]c(C)c(C(=O)OC(C)C)c1C`, for which the GI50 in the experiment on SK-OV-3 ovarian was 0.831 µM; in the experiment with SF-295 CNS, 0.0264 µM; with SNB-19 CNS it was 0.866 µM; in the experiment with HOP-92 NSCLC, 0.0239 µM; with U251 CNS, 0.0355 µM; in the experiment with NCI-H226 lung it was 0.0795 µM. Moreover, the GI50 in the experiment on UACC-257 melanoma was 0.0898 µM; in the experiment on HCT-15 colon, 0.026 µM; in the experiment with 786-0 renal, 0.0476 µM; in the experiment on SF-539 CNS it was 0.069 µM. For the same compound, the TGI turned out to be 4.65 µM with SK-OV-3 ovarian; 0.123 µM in the experiment with SF-295 CNS; 34.9 µM in the experiment on SNB-19 CNS; 0.0815 µM in the experiment on HOP-92 NSCLC; 0.82 µM in the experiment on U251 CNS; 1.28 µM in the experiment on NCI-H226 lung. In addition, the TGI in the experiment on UACC-257 melanoma came out at 1.87 µM; in the experiment on HCT-15 colon, 1.14 µM; in the experiment on 786-0 renal it was 1.03 µM; in the experiment on SF-539 CNS, 1.53 µM.

With `Cn1cnc([N+](=O)[O-])c1Sc1nnc(-c2cccnc2)n1C`, the TGI is greater than 100 µM with SK-OV-3 ovarian; greater than 100 µM in the experiment on SF-295 CNS; greater than 100 µM with SNB-19 CNS; 30.6 µM in the experiment on HOP-92 NSCLC; greater than 100 µM with U251 CNS; greater than 81.6 µM with NCI-H226 lung. The TGI in the experiment with UACC-257 melanoma was 23 µM; in the experiment on HCT-15 colon it was 36.2 µM; with 786-0 renal, 41.6 µM; with SF-539 CNS it was 55.2 µM.

Turning to `COC1=CC(=O)c2nc(-c3ccncc3)[nH]c2C1=O`, the GI50 with SK-OV-3 ovarian was greater than 100 µM; with SF-295 CNS, greater than 100 µM; in the experiment on SNB-19 CNS it was greater than 100 µM; in the experiment on HOP-92 NSCLC, 31.4 µM; in the experiment on U251 CNS, greater than 100 µM; in the experiment on NCI-H226 lung, greater than 100 µM. Also, the GI50 in the experiment on UACC-257 melanoma, with HCT-15 colon, in the experiment with 786-0 renal and with SF-539 CNS was greater than 100 µM throughout. Also, the TGI in the experiment on SK-OV-3 ovarian, in the experiment with SF-295 CNS, with SNB-19 CNS, in the experiment on HOP-92 NSCLC, with U251 CNS and with NCI-H226 lung was greater than 100 µM throughout. In addition, the TGI in the experiment with UACC-257 melanoma, in the experiment with HCT-15 colon, with 786-0 renal and in the experiment on SF-539 CNS was greater than 100 µM each time.

As for `CN(C)CC[N+]1=Nc2cccc3cccc(c23)N1`, the TGI in the experiment with SK-OV-3 ovarian, with SF-295 CNS, with SNB-19 CNS, with HOP-92 NSCLC, with U251 CNS and in the experiment on NCI-H226 lung was greater than 100 µM throughout. Further, the TGI with UACC-257 melanoma, with HCT-15 colon, with 786-0 renal and in the experiment on SF-539 CNS was greater than 100 µM throughout.

In the case of `O=C1C(Cl)=C(Nc2cccc(Cl)c2)C(=O)N1Cc1ccc(Cl)cc1Cl`, the GI50 in the experiment with SK-OV-3 ovarian was 3.57 µM; in the experiment with SF-295 CNS, 4.22 µM; in the experiment on SNB-19 CNS it was 0.842 µM; with HOP-92 NSCLC, 2.55 µM; with UACC-257 melanoma it was 5.94 µM; with HCT-15 colon, 0.0981 µM. The GI50 with SF-539 CNS was less than 0.0466 µM. Further, the concentration for total growth inhibition (TGI) stood at 20.6 µM with SK-OV-3 ovarian; 33.4 µM in the experiment with SF-295 CNS; 18 µM with SNB-19 CNS; 20.9 µM in the experiment with HOP-92 NSCLC; 13.7 µM in the experiment with U251 CNS; 2.26 µM in the experiment on NCI-H226 lung. The TGI in the experiment on UACC-257 melanoma was found to be 24.8 µM; with HCT-15 colon, 8.84 µM; with 786-0 renal it was 4.93 µM; with SF-539 CNS, 2.92 µM.

As for `CN1C(=O)C(C)(C)C2(SC(C)(C)C2(C)C)N(C)C1=S` (configuration not stated), the concentration for total growth inhibition (TGI) in the experiment with SK-OV-3 ovarian, in the experiment with SF-295 CNS, with SNB-19 CNS, in the experiment on HOP-92 NSCLC, in the experiment on U251 CNS and in the experiment with NCI-H226 lung was greater than 100 µM throughout. The TGI in the experiment with UACC-257 melanoma, in the experiment on HCT-15 colon, in the experiment with 786-0 renal and in the experiment on SF-539 CNS was greater than 100 µM throughout.

On to `CC(C)C/C(CC(=O)CCC(=O)Nc1ccccc1[N+](=O)[O-])=N\NC(=O)c1cc2ccccc2cc1O`, for which the TGI with SK-OV-3 ovarian is greater than 100 µM; with SF-295 CNS, 99.8 µM; in the experiment on SNB-19 CNS it was greater than 100 µM; in the experiment with HOP-92 NSCLC, greater than 100 µM; with U251 CNS it was greater than 100 µM; in the experiment on NCI-H226 lung, greater than 100 µM. Moreover, the TGI in the experiment with UACC-257 melanoma was greater than 100 µM; with HCT-15 colon, greater than 100 µM; in the experiment with 786-0 renal it was greater than 100 µM; with SF-539 CNS, 82.3 µM.

As a reminder, the TGI is the concentration giving total growth inhibition. Lower therefore signals more potent growth arrest. A word on the GI50: it is the concentration that inhibits growth by half.
